This note sets out measurements from patent publication US8563603B2, “Polycyclic compounds and methods related thereto” (Cornell University, priority 2008, dated 2013).

Each structure is given as a SMILES string.

In one test the test system is breast cancer cell lines. Put plainly: Alamar Blue cytotoxicity, averaged across cell lines or cell line not stated. The test is classed as cell-based, human. The conditions noted are these: averaged across cell lines. On the procedure: (§1) Human breast carcinoma cell line lines; SKBR-3, BT20, MB-MDA-468, MB-MDA-453, MB-MDA-231, and MCF-7 and human cancer cell lines Calu-6, Hela, HCT-116, HT-29, and A-431, obtained from ATCC (Manassas, Va.), were cultured in Dulbecco's Modified Eagle's Medium (DMEM-Sigma D-564R) supplemented with 10% Fetal Calf Serum (heat-inactivated) and antibiotics (Antibiotic Antimycotic Solution 100×, Sigma A9909). Breast cancer cell lines were chosen based on their varying amount of Epidermal Growth Factor Receptors (EGFR). Cells were routinely propagated and cultured at 37° C. in a 100% relative humidified atmosphere consisting of 5% C02 and 95% air. Cells were trypsinized with 0.05% Trypsin-0.2% EDTA (w/v) solution. All experiments were repeated at least three times.
Cells were seeded onto a standard 96-well microtiter plate at a density of 2×10^4 cells/well in 100-μl tissue culture medium. […] Each well was evaluated at seven 10-fold dilutions starting from a high of 1000 ppm. […] Following a 48-h incubation period, extracted cells were evaluated using Alamar Blue, a fluorometric/colorimetric assay that measures cell proliferation by relying on the cells metabolic activity. […] Data were analyzed immediately by visualizing color densities and/or with a standard spectrophotometer at 540 nm.
A general note: The colour change of resazurin is a common sign of viable cells or microbes.

The subject of another test is cancer cell lines. Put plainly: Sulforhodamine B (SRB) assay, cell line not stated / average of all cell lines. The test is classed as cell-based, human. The conditions noted are these: highest concentration; positive control averaged on all cell lines. As to the method:
as §1
In addition to Alamar blue, Sulforhodamine B Assay (SRB) was used to determine inhibition by bound protein. Individual cell lines were seeded at varying cell densities as determined by growth rate. […] The absorbance of stained protein was read with an automated 96-well microtiter ELISA plate reader (SAFIRE) at 540 nm. Using absorbance measurement [time zero. (Tz)—control growth, and growth at each drug concentration level (Ti)], the percentage growth is calculated at each of the drug concentrations. Percent growth inhibition is calculated as: [(Ti−Tz)/Tz]×100 for concentration for which Ti<Tz.
(In SRB staining, fixed cells bind dye roughly in proportion to their protein.)

Test [1] deals with Human breast cancer cell line MB-MDA-231. As to the kind of experiment: Annexin V FITC / PI apoptosis detection by flow cytometry, 24 h. Format: cell-based. As to the method:
Human breast cancer cell line MB-MDA-231 were cultured in Dulbecco's Modified Eagle's medium (DMEM-Sigma, D-5648), supplemented with 10% (heat-inactivated) Fetal Bovine Serum (Atlanta Biologicals, Inc.) and Antibiotic Solution, 100× (Sigma A-9909). Cells were gown at 37° C., at 5-7% CO2, and 95% humidity and were obtained from the American Type Culture Collection (ATCC). Cells were trypsinized with 0.05% Trypsin-0.2% EDTA (w/v) solution (Invitrogen Corporation, Carlsbad, Calif.).
The induction of apoptosis in MB-MDA-231 was analyzed using a well-validated Annexin V FITC apoptosis detection kit (Calbiochem), Darzynkiewicz, 1998. The phosphatidylserine (PS)-specific dye Annexin-V is used to detect apoptotic-specific changes to the organization of phospholipids leading to exposure of PS on the cell surface that precedes nuclear breakdown, DNA fragmentation, and the appearance of most apoptosis-associated molecules. For these studies cells were seeded at 25×10^4 cells/1.5 ml in a 24 well microtiter plate. Cells were allowed to adhere to plates for 24 h, and then exposed to lignans of the present invention at 5-fold dilutions of 30 μl, 6 μl, and 1.2 μl per well for 24 h. Test compounds were mixed in solution using DMSO as vehicle (10 mg extract/1 ml DMSO). Camptothecin was used as a positive control. Following the incubation period 700 μl of suspended cells were transferred to 15 ml conical tubes. Cells that remained adhered to the 24-well plates were gently washed with PBS (137 mM NaCl, 2.7 mM KCL, 4.3 mM Na2HPO4-7H2O, 1.4 mM KH2PO4, adjusted to pH 7.4), trypsinized with 1 ml of solution (0.05% Trypsin—0.2% EDTA [w/v]), and resuspended with the suspended cells/media collected in the 15 ml conical tubes from the previous step. 10 μl of media-binding reagent and 1.25 μl Annexin V-FITC was added to the 15 ml conical tubes containing both the 700 μl of suspended cells and the resuspended cells and incubated at room temperature for 15 min, at 18-24° C., in the dark. Tubes were centrifuged for 5 minutes at 1000×g at room temperature. Media was removed and cells were gently resuspended in 0.5 ml cold 1×binding buffer (dilution; 5× Binding Buffer concentrate 1:5 with dH2O) and placed on ice. 10 μl of propidium iodide was added to each tube. Cells were placed on ice away from light and analyzed immediately by flow cytometry. The dual fluorescence emissions of the respective dyes were detected in cell preparations on a BD-Biosciences FACS Aria high-speed flow cytometer/cell sorter utilizing a quartz cuvette for interrogation. To quantify the Annexin V (FL1 at 518 nm) and propidium iodide (620 nm) signals, apoptosis-induced cells (CPT) stained with FITC only and apoptosis-induced cells (CPT) labeled with only propidium iodide were utilized. Necessary adjustments were made to minimize overlap between these two measurements. Typically, 10,000-20,000 cells were scored for each sample and classified as either viable, early apoptotic, or late apoptotic or necrotic. All experiments were repeated at least three times, each in duplicate.
The principal of the Annexin V/FITC assay is that, Annexin V, an anticoagulant protein, preferentially binds negatively charged phospholipids. Early in the apoptotic process, phospholipid asymmetry is disrupted leading to the exposure of phosphatidylserine (PS) on the outer leaflet of the cytoplasmic membrane. Annexin V binds to the negatively charged calcium-dependent PS. Conjugating FITC to Annexin V with simultaneous propidium iodide (PI) staining allows bivariate analysis of intact cells. Live, healthy cells are double negative, FITC (−)/PI (−), and are seen in the lower left quadrant [A3] of FACS cytograms. Cells that are FITC (+)/PI (−) [A4] are early apoptotic. Cell populations that are advanced apoptotic or necrotic are FITC (+)/PI (+) are located in quadrant [A2]. […]
A general note: Flow cytometry measures light scatter and fluorescence of single cells or particles in a stream.

Another test relates to cell line MD-MBA-231. Put plainly: Cell cycle analysis by DNA content (hypotonic PI staining, flow cytometry). Format: cell-based, human. The conditions noted are these: 1.2, 6.0, 30.0 ppm; 24 h. On the procedure: Twenty-four hours after exposure to compounds, 25×10^4 cells in 1.5 ml cells were simply re-suspended following either the Annexin V/FITC assay or the trypsin procedures. Cells were centrifuged at 1000-x g at room temperature and washed in 0.5 ml of hypotonic staining solution. Cells were kept a minimum of 30 min. at 4° C. in the dark. Samples were usually analyzed by flow cytometry on the same day or at 24 hrs. Resulting DNA distributions were analyzed for the proportion of cells in apoptosis and in G0/G1, S, and G2/M phases of the cell cycle. Singlet events were gated and 10,000-20,000 events were acquired within the gated region. All experiments were repeated at least three times, each in duplicate.
The cell cycle comprises steps that regulate the correct temporal sequence of events that control the growth, reproduction and differentiation of cells. The cell cycle consists of 4 phases: G0/G1, S (DNA synthesis), G2, and M (mitosis). In addition, checkpoints located in the cell cycle transition ensure that cell growth and division occur in response to appropriate signals and environment. When proliferating, if cells are subjected to DNA damage the cell cycle temporarily pauses either at G1, S or G2 phase. Arrest at these checkpoints prevents DNA replication and mitosis in the presence of unrepaired DNA damage and presumably allows time for DNA repair to occur. The proportion of cells that arrest in G1, S or G2 after damage depends on cell type, growth conditions, type of damage and the checkpoints operative in the cells. Shifts in the redistribution of phases of the cell cycle in response to various stimuli can be readily assessed by flow cytometry. DNA content analysis with the use of PI is one of the most common assays. The use of intercalating dyes to measure DNA content are the most common and are usually sufficient to determine relative shifts in the phases of the cell cycle. The hypotonic solution lyses the plasma membrane and prevents many of the aggregate problems associated with fixed cells. Propidium Iodide(PI) passes through permeabilized cell membranes and intercalates with cellular DNA. Therefore, the intensity of the PI signal is directly proportional to DNA content. DNA content experiments determine the percent induction of apoptosis and relative distribution of the cell cycle phases.
The percent of apoptotic cells (cells with fractional DNA content; sub G1 cells) were established by estimating the percentage of events showing up in sub G0. The Sub-G1 method relies on the fact that after DNA fragmentation, there are small fragments of DNA that may be eluted. However in order to be seen in the Sub G1 area, a cell must have lost enough DNA to appear there; so if cells enter apoptosis from the S or G2/M phase of the cell cycle or if there is an aneuploid population undergoing apoptosis, they may not appear in the Sub G1 peak. The number of events in sub G1 (number of nuclear fragments) provides no information on the # of cells undergoing apoptosis.

For the compound `O=c1[nH]cc(F)c(=O)[nH]1` [5-fluorouracil, 5-Fluorouracil], in the test with breast cancer cell lines, the “concentration of cell death / greatest inhibition, positive controls” value was “cell death at the same lower limits as cell lines BT20 and MB-MDA-453”. The inhibited cell growth result with cancer cell lines was “approximately 60%”.
As for `CC[C@@]1(O)C(=O)OCc2c1cc1n(c2=O)Cc2cc3ccccc3nc2-1` [Camptothecin, reference compound], the “concentration of cell death / greatest inhibition, positive controls” value with breast cancer cell lines came out at 7.81 ppm. Further, in test [1] (1.2, 6.0, 30.0 ppm, 24 h), the “early stage apoptosis, FITC (+)/PI (−) staining, significance” value is reported as “significantly increased”. For the same compound, the “early apoptosis activity increased over the spirocyclic lignans” value in test [1] (all doses) was “at least 5%”. In the test with cell line MD-MBA-231, the “% events in sub G0 (apoptotic events)” value is “increased and significantly induced apoptotic activity at 30.0 ppm”; the “effect on cell population in G2/M” value was “remained at levels with untreated cells at all doses”; the “effect on cell populations in S-phase, significance” value was “significant at 6.0 and 30.0 ppm”; the singlet count result is listed as “reached minimal levels at 30 ppm”.
